One data set is described as follows: physchem. Conditions: PBS (99%) with DMSO (1%), 37 °C, aqueous buffer, kinetic from dmso stock, kinetic solubility.
The next data set has as its target T1, human serum BChE (hBChE) (Homo sapiens, UniProt P06276).
T1 construct: human serum BChE (hBChE); purchased Sigma (Milan, Italy); host or cells: human serum
The experiment in a line: biochemical. The following applies: for IC50: human serum BChE, Ellman method, mean ± standard error; for increase in hBChE inhibitory activity relative to hybrid 3: relative to dihydroxyanthraquinone hybrid 3.

The nature of data set [1]: Plasma stability, rat plasma. The class given is in vitro ADME. The following applies: 37 °C; for remaining at 1 h, 5 μM / remaining at 6 h, 5 μM: rat, plasma; for remaining at 1 h, 5 μM: read-out: Plasma Stability % Remaining Compound, rat, 1 h; for remaining at 6 h, 5 μM: read-out: Plasma Stability % Remaining Compound, rat, 6 h. As to the method:
(§1) The plasma stability of the new compounds was tested using in human, mouse, and rat plasma (Seralab). One hundred μL of 5 μM solutions of the new compounds in plasma were plated and incubated at 37 °C for 0, 60, 120, and 360 min, and then treated with 300 μL of acetonitrile and centrifuged (4000× g; 60 min; 4 °C). Sample quantification was performed by UPLC/MS/MS analysis of the resulting supernatant using a UPLC QSM Waters Acquity apparatus, equipped with a Waters ACQUITY BEH C18 1.7 μm 2.1 × 50 mm column, eluting with 0.1% formic acid in water or in acetonitrile, with a flow of 0.6 mL/min. The gradient indicated in Table 1 was used in this assay.
(§2) Compound concentration was calculated from the MS peak areas and expressed as the percentage of remaining compound at the different tested times.

Data set [2] is described as follows: Plasma stability, rat plasma. The following applies: 37 °C. The data set is classed as in vitro ADME.
Data set [3] in a line: Plasma stability, mouse plasma. The data set is classed as in vitro ADME. The following applies: 37 °C; for remaining at 1 h, 5 μM: read-out: Plasma Stability % Remaining Compound, mouse, 1 h; for remaining at 6 h, 5 μM: read-out: Plasma Stability % Remaining Compound, mouse, 6 h. Here is the method: as §1, §2
A further data set can be described thus: in vitro. Conditions: PAMPA, PAMPA-BBB.
The next data set has as its system zebrafish embryos. Description: Fish embryo acute toxicity (FET) test in zebrafish embryos. The data set is classed as in vivo. Conditions: 72 h of exposure, lethality. As to the method: Test solutions were freshly prepared for each experiment and were renewed every 24 h. The maximum tested compound concentration was 100 µM and four additional concentrations were also prepared by applying a 1:2 dilution factor. A 1% DMSO solution was used as a vehicle control.
Six-well plates were incubated at 26 ± 1 °C under a 14:10 light:dark cycle for 72 h. To assess the potential lethality of the new compounds, we followed, every 24 h, the four parameters that are outlined in the OECD Guideline No. 236: embryo coagulation, lack of somite formation, non-detachment of the tail, and absence of a heartbeat (from 48 h onward). The percentage of lethality at each concentration that was tested for the new compounds was recorded and expressed as mean ± SEM from three or more independent experiments. […] LOAEC values were determined through an ANOVA test with Bonferroni’s post-hoc test for multiple comparisons (significance threshold: p < 0.05).

Data set [4] in a line: Plasma stability, mouse plasma. The class given is in vitro ADME. The following applies: 37 °C.
Data set [5] deals with T2, human recombinant BACE-1 (hBACE-1) (Homo sapiens, UniProt P56817).
T2 construct: purchased Invitrogen, Carlsbad, CA, USA
T2 sequence (P56817 46-501): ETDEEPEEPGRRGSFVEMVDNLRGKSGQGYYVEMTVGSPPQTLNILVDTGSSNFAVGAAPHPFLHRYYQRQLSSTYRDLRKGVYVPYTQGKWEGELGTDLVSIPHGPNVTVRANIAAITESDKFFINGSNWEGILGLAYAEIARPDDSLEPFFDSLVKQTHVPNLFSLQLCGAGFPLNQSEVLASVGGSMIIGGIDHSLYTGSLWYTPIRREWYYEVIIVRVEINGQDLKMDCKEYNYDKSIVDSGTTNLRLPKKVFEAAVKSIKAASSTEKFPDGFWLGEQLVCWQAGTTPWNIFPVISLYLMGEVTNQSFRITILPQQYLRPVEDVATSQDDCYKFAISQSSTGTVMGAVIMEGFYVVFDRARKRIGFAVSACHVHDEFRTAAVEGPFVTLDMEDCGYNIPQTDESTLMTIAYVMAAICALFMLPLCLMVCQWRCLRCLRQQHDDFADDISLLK
The arrangement: method as in PMID 24568372. The following applies: cited from earlier work.

The conditions of data set [6]: PAMPA-BBB.
Protocol: (§3) The parallel artificial membrane permeability assay for the blood–brain barrier (PAMPA-BBB) [41] was used to assess the in vitro brain permeability of the new compounds. For the assay, the compounds were dissolved in mixtures of PBS and ethanol (70:30).
Where [7] appears, read: Solubility class, classification after ref 70.
[8] abbreviates: Solubility, 2 h, DMSO (1%)/PBS (99%).
Where [9] appears, read: Solubility, 2 h, PBS with 1% DMSO, nephelometry.
[10] abbreviates: Brain Permeability Pe, mean ± SD.
The mark [11] stands for this setting: Brain permeability class, Table 4.

In brackets after ≈: the same amount, converted by molar mass. Several values for one entry are separate records, joined by “and”; a condition that tells them apart may be missing. Identical values can stand only once.

A word on the solubility: it is how much of the substance goes into solution per volume. Usually IC50 stands for the concentration that inhibits the measured activity by half. A higher IC50 goes with lower potency. What is called amount remaining is what is left of the initial amount, in per cent. Usually Solubility stands for how much of the substance goes into solution per volume. A lower Solubility goes with a poorly soluble substance. The Papp is a coefficient for how fast a substance crosses the barrier. Low readings indicate slow passage, high ones fast passage.

T1 sequence (P06276 29-602): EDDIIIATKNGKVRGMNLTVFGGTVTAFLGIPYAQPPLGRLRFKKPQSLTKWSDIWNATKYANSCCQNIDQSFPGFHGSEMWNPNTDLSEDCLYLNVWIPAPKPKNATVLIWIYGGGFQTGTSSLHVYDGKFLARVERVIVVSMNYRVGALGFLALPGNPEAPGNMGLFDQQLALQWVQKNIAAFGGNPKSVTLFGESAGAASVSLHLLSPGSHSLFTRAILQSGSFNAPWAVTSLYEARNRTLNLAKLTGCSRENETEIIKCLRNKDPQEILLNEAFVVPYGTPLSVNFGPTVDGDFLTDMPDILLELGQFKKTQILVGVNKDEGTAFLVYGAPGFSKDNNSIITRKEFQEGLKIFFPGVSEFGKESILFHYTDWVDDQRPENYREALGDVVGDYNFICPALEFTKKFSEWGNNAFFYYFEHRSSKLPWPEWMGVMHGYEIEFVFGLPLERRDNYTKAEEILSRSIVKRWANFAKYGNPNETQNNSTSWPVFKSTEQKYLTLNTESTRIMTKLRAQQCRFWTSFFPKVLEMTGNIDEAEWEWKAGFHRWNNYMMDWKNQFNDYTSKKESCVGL
Protocol for human serum BChE (hBChE): The stock and assay solutions were prepared as follows:
Stock hBChE solution: solution of the lyophilized powder in 0.1% aq. gelatin.
Stock solutions of the new compounds: 1 mM solutions in methanol, with further dilutions in this solvent to the desired concentrations.
Protocol for in vitro: as §3
Protocol for physchem: The resulting solutions were incubated at 37 °C. After 2 h incubation, the samples were read using a BMG LABTECH NEPHELOstar Plus laser nephelometer (Ortenberg, Germany).

Turning to `CC(=O)c1cccc(C(=O)NCCCCCCCCCNc2c3c(nc4cc(Cl)ccc24)CC2C=C(C)CC3C2)c1` (stereo not shown) [Compound 7, 3-Acetyl-N-{9-[(3-chloro-6,7,10,11-tetrahydro-9-methyl-7,11-methanocycloocta[b]quinolin-12-yl)amino]nonyl}benzamide], the values for the solubility at 2 h in the data set “physchem” (setting [7]), in “physchem” (setting [8]) and in “physchem” (setting [9]) were 10 to 100 µg/mL, 11 µg/mL and 18 µM, respectively. Besides, on human serum BChE (hBChE), the IC50 is 13 nM and 12.7 nM. Besides, the “increase in hBChE inhibitory activity relative to hybrid 3” value on human serum BChE (hBChE) is 40–50 fold. In data set [1] (6 h, 5 μM), the “Plasma Stability % Remaining Compound, rat, 6 h” value was found to be 85.8%. In addition, the share remaining at 1 h, 5 μM in data set [1] is 98.9%; in data set [3], 97.5%. Also, the fraction remaining at 6 h, 5 μM in data set [1] (6 h) turned out to be 86%; in data set [3], 96%. In addition, the Solubility (kinetic solubility, 37 °C, 2 h, PBS with 1% DMSO, nephelometry) amounted to 18.1 µM (≈ 10.4 µg/mL). Also, the “increased aqueous solubility relative to the initial lead” value (relative to lead 3) is reported as 2 fold. In data set [2], the “% hydrolyzed in rat plasma after 6 h” value came out at 14.2%. Besides, the Papp was 16.5 ± 1.1 ×10⁻⁶ cm/s in “in vitro” (setting [10]) and above 5.2 ×10⁻⁶ cm/s in “in vitro” (setting [11]).

For the compound `CC1=CC2Cc3nc4cc(Cl)ccc4c(NCCCCCCCCCNC(=O)c4cccc(C(=O)c5ccccc5)c4)c3C(C1)C2` (stereo not shown) [Compound 6, 3-Benzoyl-N-{9-[(3-chloro-6,7,10,11-tetrahydro-9-methyl-7,11-methanocycloocta[b]quinolin-12-yl)amino]nonyl}benzamide], the solubility at 2 h in “physchem” (setting [7]) is below 10 µg/mL; in the data set “physchem” (setting [8]), 8.4 µg/mL; in the data set “physchem” (setting [9]) it was 12.5 µM. Also, the LOAEC in the data set with zebrafish embryos stood at 50 µM. Half-maximal inhibition against human serum BChE (hBChE) (IC50) required 16.5 ± 1.9 nM. Further, on human serum BChE (hBChE), the “increase in hBChE inhibitory activity relative to hybrid 3” value is recorded as 40–50 fold. The amount remaining at 1 h, 5 μM was 96% in [1] and 98.3% in data set [3]. In addition, the share remaining at 6 h, 5 μM in [1] (6 h) was determined as 92.4%; in [3], 76.9%. The Papp in “in vitro” (setting [10]) is 7.4 ± 0.3 ×10⁻⁶ cm/s; in the data set “in vitro” (setting [11]) it was above 5.2 ×10⁻⁶ cm/s.

In the case of `CC1=CC2Cc3nc4cc(Cl)ccc4c(NCCCCCCCCCNC(=O)c4cc(O)c5c(c4)C(=O)c4cccc(O)c4C5=O)c3C(C1)C2` (stereo not shown) [Compound 3], the results for the solubility at 2 h in “physchem” (setting [7]), in “physchem” (setting [8]) and in “physchem” (setting [9]) were below 10 µg/mL, 6.3 µg/mL and 8.6 µM, respectively. Moreover, the LOAEC in the data set on zebrafish embryos was determined as 100 µM. In data set [4], the “% hydrolyzed in mouse plasma after 6 h” value turned out to be 7.1%. Further, the results for the fraction remaining at 1 h, 5 μM in data set [1] and in data set [3] were 98% and 97.2%, respectively. Besides, the figures for the share remaining at 6 h, 5 μM in data set [1] (6 h) and in [3] were 67.9% and 92.9%, respectively. The “% hydrolyzed in rat plasma after 6 h” value in [2] is 32.1%. The “BACE-1 inhibition (in words)” value in data set [5] is given as “found to inhibit BACE-1”. In the data set “in vitro” (setting [11]), this compound returned an apparent permeability (Papp) above 5.2 ×10⁻⁶ cm/s. Further, the “BBB permeation class” value in [6] (CNS+ threshold Pe over 5.21 × 10^−6 cm/s) was “CNS+ (high BBB permeation (CNS+), with Pe (10^−6 cm/s) > 5.21)”. Moreover, in data set [6] (mean ± SD), the “Brain Permeability Pe” value is listed as 21.5 ± 0.7 10^−6 cm s^−1.

As for `CC1=CC2Cc3nc4cc(Cl)ccc4c(NCCCCCCCCCNC(=O)c4ccc5c(c4)C(=O)c4ccccc4-5)c3C(C1)C2` (stereo not shown) [Compound 5, N-{9-[(3-Chloro-6,7,10,11-tetrahydro-9-methyl-7,11-methanocycloocta[b]quinolin-12-yl)amino]nonyl}-9-fluorenone-2-carboxamide], the solubility at 2 h was below 10 µg/mL in “physchem” (setting [7]), 5.4 µg/mL in the data set “physchem” (setting [8]) and 8.1 µM in the data set “physchem” (setting [9]). Moreover, on human serum BChE (hBChE), the 50% inhibitory concentration (IC50) was determined as 883 ± 55 nM. For the same compound, the values for the amount remaining at 1 h, 5 μM in data set [1] and in data set [3] were 93.6% and 95.7%, respectively. In addition, the values for the amount remaining at 6 h, 5 μM in [1] (6 h) and in data set [3] were 84.7% and 90.4%, respectively. Also, the Papp in the data set “in vitro” (setting [10]) was 6.2 ± 0.8 ×10⁻⁶ cm/s; in “in vitro” (setting [11]), above 5.2 ×10⁻⁶ cm/s.

`CC1=CC2Cc3nc4cc(Cl)ccc4c(NCCCCCCCCCNC(=O)c4ccc5c(c4)C(=O)c4ccccc4C5=O)c3C(C1)C2` (stereo not shown) [Compound 4, N-{9-[(3-Chloro-6,7,10,11-tetrahydro-9-methyl-7,11-methanocycloocta[b]quinolin-12-yl)amino]nonyl}anthraquinone-2-carboxamide]: the solubility at 2 h in “physchem” (setting [7]) was below 10 µg/mL; in the data set “physchem” (setting [8]), 5.9 µg/mL; in the data set “physchem” (setting [9]) it was 8.4 µM. At human serum BChE (hBChE), this compound yielded a 50% inhibitory concentration (IC50) of 1250 ± 130 nM. Also, the fraction remaining at 1 h, 5 μM in data set [1] was 100%; in [3], 96%. For the same compound, the share remaining at 6 h, 5 μM in [1] (6 h) came to 77.2%; in [3], 90.1%. Further, the apparent permeability (Papp) is 9.2 ± 1.2 ×10⁻⁶ cm/s in “in vitro” (setting [10]) and above 5.2 ×10⁻⁶ cm/s in the data set “in vitro” (setting [11]).

Values taken from article PMC11359831, “Stepwise Structural Simplification of the Dihydroxyanthraquinone Moiety of a Multitarget Rhein-Based Anti-Alzheimer Lead to Improve Drug Metabolism and Pharmacokinetic Properties” (Pharmaceutics, 2024).
